Source: patent publication US8563741B2, “CDK inhibitors containing a zinc binding moiety” (Curis, Inc., priority 2007, dated 2013)

Columns and labels:
HDAC = HDAC fluorimetric assay kit (AK-500, Biomol), HeLa nuclear extract; type: biochemical
Procedure: HDAC inhibitors were screened using an HDAC fluorimetric assay kit (AK-500, Biomol, Plymouth Meeting, Pa.). […] Each assay was setup as follows: Defrosted all kit components and kept on ice until use. Diluted HeLa nuclear extract 1:29 in Assay Buffer (50 mM Tris/Cl, pH 8.0, 137 mM NaCl, 2.7 mM KCl, 1 mM MgCl2). Prepared dilutions of Trichostatin A (TSA, positive control) and tested compounds in assay buffer (5× of final concentration). Diluted Fluor de LysTM Substrate in assay buffer to 100 uM (50 fold=2× final). Diluted Fluor de LysTM developer concentrate 20-fold (e.g. 50 μl plus 950 μl Assay Buffer) in cold assay buffer. Second, diluted the 0.2 mM Trichostatin A 100-fold in the 1× Developer (e.g. 10 μl in 1 ml; final Trichostatin A concentration in the 1× Developer=2 μM; final concentration after addition to HDAC/Substrate reaction=1 μM). Added Assay buffer, diluted trichostatin A or test inhibitor to appropriate wells of the microtiter plate. Added diluted HeLa extract or other HDAC sample to all wells except for negative controls. Allowed diluted Fluor de LysTM Substrate and the samples in the microtiter plate to equilibrate to assay temperature (e.g. 25 or 37° C. Initiated HDAC reactions by adding diluted substrate (25 μl) to each well and mixing thoroughly. Allowed HDAC reactions to proceed for 1 hour and then stopped them by addition of Fluor de LysTM Developer (50 μl). Incubated plate at room temperature (25° C.) for 10-15 min. Read samples in a microtiter-plate reading fluorimeter capable of excitation at a wavelength in the range 350-380 nm and detection of emitted light in the range 440-460 nm.

CDK2/cyclinE = target: T1, CDK2/cyclinE (Homo sapiens, UniProt P24941); experiment: CDK activity assay with p33 ATP, CDK2/cyclinE; type: biochemical; details: 1 μM ATP
T1 construct: C-terminal 6His-tagged, recombinant full-length CDK2 (MW=34 kDa); 6His (C); made in house; host or cells: Sf21 cells (baculovirus)
Procedure: CDK2/cyclinE (Accession Number for CDK2; EMBL M68520, for cyclinE1; GenBank NM_001238):
C-terminal 6His-tagged, recombinant full-length CDK2 (MW=34 kDa) in complex with N-terminal GST-tagged, recombinant full-length cyclinE1 (MW=74 kDa) were expressed with baculovirus system in Sf21 cells. Recombinant proteins were purified using Ni2+/NTA agarose and the purity of recombinant protein complex was measured to be around 76% by SDS-PAGE and Coomassie blue staining. Specific Activity of recombinant CDK2/cyclinE was 1336 U/mg, where one unit of CDK2/cylinE1 activity is defined as 1 nmol phosphate incorporated into 0.1 mg/ml histone H1 per minute at 30° C. with a final ATP concentration of 100 μM. Enzyme was stored with concentration of 0.1 mg/ml in 50 mM Tris/HCl pH 7.5, 150 mM NaCl, 0.03% Brij-35, 0.1 mM EGTA, 0.2 mM PMSF, 1 mM benzamidine, 0.1% 2-mercaptoethanol, 270 mM sucrose.

SMILES	IC50 (HDAC)	IC50 (CDK2/cyclinE)	melting point	CDK2/cyclinE IC50 (CDK2/cyclinE)
CC(C)(C)c1cnc(CSc2nnc(NC(=O)Cc3ccc(OCCCC(=O)NO)cc3)s2)o1 [Compound 30, 4-(4-(2-(5-((5-tert-butyloxazol-2-yl)methylthio)-1,3,4-thiadiazol-2-ylamino)-2-oxoethyl)phenoxy)-N-hydroxybutanamide]	100 to 1000 nM	1000 to 10000 nM	–	–
CC(C)(C)c1cnc(CSc2cnc(NC(=O)CCCNCCCCCC(=O)NO)s2)o1 [Compound 16, 6-(4-(5-((5-tert-butyloxazol-2-yl)methylthio)-thiazol-2-ylamino)-4-oxobutylamino)-N-hydroxyhexanamide]	100 to 1000 nM	–	–	–
CC(C)(C)c1cnc(CSc2cnc(NC(=O)CCCNCCCCCCC(=O)NO)s2)o1 [Compound 17, 7-(4-(5-((5-tert-butyloxazol-2-yl)methylthio)-thiazol-2-ylamino)-4-oxobutylamino)-N-hydroxyheptanamide]	100 to 1000 nM	< 100 nM	–	–
CC(C)(C)c1cnc(CSc2cnc(NC(=O)Oc3ccc(OCCCC(=O)NO)cc3)s2)o1 [Compound 28, 4-(4-(hydroxyamino)-4-oxobutoxy)phenyl-5-((5-tert-butyloxazol-2-yl)methylthio)thiazol-2-ylcarbamate]	–	< 100 nM	–	–
CC(C)(C)c1cnc(CSc2nnc(NC(=O)CCCCCCC(=O)NO)s2)o1 [Compound 22, N^1-(5-((5-tert-butyloxazol-2-yl)methylthio)-1,3,4-thiadiazol-2-yl)-N^8-hydroxyoctanediamide]	–	1000 to 10000 nM	–	–
CC(C)(C)c1cnc(CSc2cnc(NC(=O)C3CCN(CCCCCCC(=O)NO)CC3)s2)o1 [Compound 4, N-(5-((5-tert-butyloxazol-2-yl)methylthio)thiazol-2-yl)-1-(7-(hydroxyamino)-7-oxoheptyl)piperidine-4-carboxamide]	100 to 1000 nM	< 100 nM	113 to 115 °C	–
CC(C)(C)c1cnc(CSc2cnc(NC(=O)Cc3ccc(OCCCCCC(=O)NO)cc3)s2)o1 [Compound 11]	100 to 1000 nM	< 100 nM	–	–
CC(C)(C)c1cnc(CSc2cnc(NCC3CCN(c4ncc(C(=O)NO)cn4)CC3)s2)o1 [Compound 21, 2-(4-((5-((5-tert-butyloxazol-2-yl)methylthio)-thiazol-2-ylamino)methyl)piperidin-1-yl)-N-hydroxypyrimidine-5-carboxamide]	< 100 nM	< 100 nM	–	–
CC(C)(C)c1cnc(CSc2cnc(NC(=O)Nc3ccc(OCCCC(=O)NO)cc3)s2)o1 [Compound 29, 4-(4-(3-(5-((5-Tert-butyloxazol-2-yl)methylthio)-thiazol-2-yl)ureido)phenoxy)-N-hydroxybutanamide]	100 to 1000 nM	< 100 nM	–	–
CC(C)(C)c1cnc(CSc2cnc(NC(=O)C3CCN(CCCCC(=O)NO)CC3)s2)o1 [Compound 2, N-(5-((5-tert-butyloxazol-2-yl)methylthio)thiazol-2-yl)-1-(5-(hydroxyamino)-5-oxopentyl)piperidine-4-carboxamide]	1000 to 10000 nM	< 100 nM	93 to 97 °C	–
CC(C)(C)c1cnc(CSc2cnc(NS(=O)(=O)c3cccc(/C=C/C(=O)NO)c3)s2)o1 [Compound 32, (E)-3-(3-(N-(5-((5-tert-butyloxazol-2-yl)methylthio)thiazol-2-yl)sulfamoyl)phenyl)-N-hydroxyacrylamide]	< 100 nM	1000 to 10000 nM	–	–
CC(Sc1cnc(NC(=O)Cc2ccc(OCCCC(=O)NO)cc2)s1)c1ncc(C(C)(C)C)o1 (centres unmarked) [Compound 26, 4-(4-(2-(5-(1-(5-Tert-butyloxazol-2-yl)ethylthio)-thiazol-2-ylamino)-2-oxoethyl)phenoxy)-N-hydroxybutanamide]	100 to 1000 nM	< 100 nM	–	–
CC(C)(C)c1cnc(CSc2cnc(NC(=O)C3CCN(CCCCCC(=O)NO)CC3)s2)o1 [Compound 3, N-(5-((5-tert-butyloxazol-2-yl)methylthio)thiazol-2-yl)-1-(6-(hydroxyamino)-6-oxohexyl)piperidine-4-carboxamide]	1000 to 10000 nM	< 100 nM	127 to 130 °C	–
CC(C)(C)c1cnc(CSc2cnc(NC(=O)c3ccc(OCCCC(=O)NO)cc3)s2)o1 [Compound 39]	100 to 1000 nM	< 100 nM	–	–
CC(C)(C)c1cnc(CSc2cnc(NS(=O)(=O)c3ccc(/C=C/C(=O)NO)cc3)s2)o1 [Compound 34, (E)-3-(4-(N-(5-((5-tert-butyloxazol-2-yl)methylthio)-thiazol-2-yl)sulfamoyl)phenyl)-N-hydroxyacrylamide]	< 100 nM	–	–	No
CC(C)(C)c1cnc(CSc2cnc(NC(=O)Cc3ccc(OCCC(=O)NO)cc3)s2)o1 [Compound 23, 3-(4-(2-(5-((5-tert-butyloxazol-2-yl)methylthio)-thiazol-2-ylamino)-2-oxoethyl)phenoxy)-N-hydroxypropanamide]	< 100 nM	< 100 nM	93 to 95 °C	–
CC(C)(C)c1cnc(CSc2cnc(NC(=O)C3CCN(CCCC(=O)NO)CC3)s2)o1 [Compound 1, N-(5-((5-tert-butyloxazol-2-yl)methylthio)thiazol-2-yl)-1-(4-(hydroxyamino)-4-oxobutyl)piperidine-4-carboxamide]	> 10000 nM	< 100 nM	176 to 180 °C	–
CC(C)(C)c1cnc(CSc2cnc(NC(=O)c3ccc(OCCCCC(=O)NO)cc3)s2)o1 [Compound 24, N-(5-((5-tert-butyloxazol-2-yl)methylthio)thiazol-2-yl)-4-(5-(hydroxyamino)-5-oxopentyloxy)benzamide]	–	< 100 nM	–	–
CC(C)(C)c1cnc(CSc2cnc(NC(=O)c3ccc(OCCCCCCC(=O)NO)cc3)s2)o1 [Compound 40]	100 to 1000 nM	< 100 nM	–	–
CC(C)(C)c1cnc(CSc2cnc(NS(=O)(=O)c3ccc(C(=O)NO)cc3)s2)o1 [Compound 33, 4-(N-(5-((5-tert-butyloxazol-2-yl)methylthio)-thiazol-2-yl)sulfamoyl)-N-hydroxybenzamide]	100 to 1000 nM	–	–	No
CC(C)(C)c1cnc(CSc2cnc(NC(=O)C(C)(C)c3ccc(OCCCC(=O)NO)cc3)s2)o1 [Compound 27, 4-(4-(1-(5-((5-Tert-butyloxazol-2-yl)methylthio)-thiazol-2-ylamino)-2-methyl-1-oxopropan-2-yl)phenoxy)-N-hydroxybutanamide]	100 to 1000 nM	< 100 nM	–	–
CC(C)(C)c1cnc(CSc2cnc(NC(=O)c3ccc(/C=C/C(=O)NO)cc3)s2)o1 [Compound 18, (E)-N-(5-((5-tert-butyloxazol-2-yl)methylthio)thiazol-2-yl)-4-(3-(hydroxylamino)-3-oxoprop-1-enyl)benzamide]	100 to 1000 nM	< 100 nM	–	–
CC(C(=O)Nc1ncc(SCc2ncc(C(C)(C)C)o2)s1)c1ccc(OCCCC(=O)NO)cc1 (centres unmarked) [Compound 31, 4-(4-(1-(5-((5-Tert-butyloxazol-2-yl)methylthio)-thiazol-2-ylamino)-1-oxopropan-2-yl)phenoxy)-N-hydroxybutanamide]	< 100 nM	< 100 nM	–	–
CC(C)(C)c1cnc(CSc2cnc(NC(=O)c3cccc(/C=C/C(=O)NO)c3)s2)o1 [Compound 19, (E)-N-(5-((5-tert-butyloxazol-2-yl)methylthio)-thiazol-2-yl)-3-(3-(hydroxylamino)-3-oxoprop-1-enyl)benzamide]	100 to 1000 nM	< 100 nM	–	–
CC(C)(C)c1cnc(CSc2cnc(NC(=O)c3ccc(OCCCCCC(=O)NO)cc3)s2)o1 [Compound 25, N-(5-((5-tert-butyloxazol-2-yl)methylthio)thiazol-2-yl)-4-(6-(hydroxyamino)-6-oxohexyloxy)benzamide]	100 to 1000 nM	< 100 nM	–	–
CC(C)(C)c1cnc(CSc2cnc(NC(=O)Cc3ccc(OCCCCC(=O)NO)cc3)s2)o1 [Compound 10, 5-(4-(2-(5-((5-tert-butyloxazol-2-yl)methylthio)thiazol-2-ylamino)-2-oxoethyl)phenoxy)-N-hydroxypentanamide]	100 to 1000 nM	< 100 nM	–	–
